Structures are written as SMILES.

For this assay, the target named is T1, human GnRH receptor (Homo sapiens, UniProt P30968).
T1 sequence (P30968 1-328): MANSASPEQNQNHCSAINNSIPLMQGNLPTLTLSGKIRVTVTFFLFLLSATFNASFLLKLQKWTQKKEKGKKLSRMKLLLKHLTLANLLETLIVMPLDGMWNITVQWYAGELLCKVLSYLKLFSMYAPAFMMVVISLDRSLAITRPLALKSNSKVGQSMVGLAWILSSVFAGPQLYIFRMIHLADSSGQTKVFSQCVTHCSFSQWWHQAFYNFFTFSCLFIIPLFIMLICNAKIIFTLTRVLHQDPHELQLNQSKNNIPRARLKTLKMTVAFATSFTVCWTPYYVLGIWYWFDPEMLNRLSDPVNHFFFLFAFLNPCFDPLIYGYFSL
Nature of the assay: IP-One HTRF assay with buserelin (at EC80) stimulation. It is filed as cell-based. As to conditions: CHO cells stably expressing human GnRH receptor, read-out: Potency in IP-One HTRF assay, given as IC50. An outline of the steps: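 CHO cells stably expressing human GnRH receptor, preincubated 1 h at 37° C with IP1-d2, were exposed to compound and buserelin at EC80 for 1 h at 37° C. After lysis with Tb-anti-IP1 antibody (1 h, 22° C), 665/620 nm HTRF ratio read; 10 concentrations, 20 μM–1 nM, duplicates, 4-parameter IC50.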
As for `COc1cccc(S(=O)(=O)N2c3ccc(C(=O)NCc4ccccc4Cl)cc3C3(CCS(=O)(=O)CC3)C2C2CC2)c1` (stereo not shown) [Example 44, N-(2-chlorobenzyl)-2-cyclopropyl-1-[(3-methoxyphenyl)sulfonyl]-1,2,2′,3′,5′,6′-hexahydrospiro[indole-3,4′-thiopyran]-5-carboxamide 1′,1′-dioxide], the IC50 is 31 nM. For `COc1cccc(S(=O)(=O)N2c3ccc(C(=O)NCc4ncccc4C)cc3C3(CCS(=O)(=O)CC3)C2C2CC2)c1` (stereo not shown) [Example 45, 2-cyclopropyl-1-[(3-methoxyphenyl)sulfonyl]-N-[(3-methylpyridin-2-yl)methyl]-1,2,2′,3′,5′,6′-hexahydrospiro[indole-3,4′-thiopyran]-5-carboxamide 1′,1′-dioxide], the half-maximal inhibitory concentration (IC50) is 299 nM. The value for `COc1cccc(S(=O)(=O)N2c3ccc(C(=O)NCc4ccc(F)cc4Cl)cc3C3(CCS(=O)(=O)CC3)C2C2CC2)c1` (stereo not shown) [Example 46, N-(2-chloro-4-fluorobenzyl)-2-cyclopropyl-1-[(3-methoxyphenyl)sulfonyl]-1,2,2′,3′,5′,6′-hexahydrospiro[indole-3,4′-thiopyran]-5-carboxamide 1′,1′-dioxide] was 81 nM; that for `COc1cccc(S(=O)(=O)N2c3ccc(C(=O)NCc4ccccc4F)cc3C3(CCS(=O)(=O)CC3)C2C2CC2)c1` (stereo not shown) [Example 47, 2-cyclopropyl-N-(2-fluorobenzyl)-1-[(3-methoxyphenyl)sulfonyl]-1,2,2′,3′,5′,6′-hexahydrospiro[indole-3,4′-thiopyran]-5-carboxamide 1′,1′-dioxide] was 133 nM. Consider `COC(=O)c1cccc(NC(=O)c2ccc3c(c2)C2(CCS(=O)(=O)CC2)C(C2CC2)N3S(=O)(=O)c2cccc(OC)c2)c1` (stereo not shown) [Example 48, methyl 3-[({2-cyclopropyl-1-[(3-methoxyphenyl)sulfonyl]-1′,1′-dioxido-1,2,2′,3′,5′,6′-hexahydrospiro[indole-3,4′-thiopyran]-5-yl}carbonyl)amino]benzoate], for which the IC50 was 55 nM.

In the case of `COc1cccc(S(=O)(=O)N2c3ccc(C(=O)Nc4cccc(C(=O)O)c4)cc3C3(CCS(=O)(=O)CC3)C2C2CC2)c1` (stereo not shown) [Example 50, 3-[({2-cyclopropyl-1-[(3-methoxyphenyl)sulfonyl]-1′,1′-dioxido-1,2,2′,3′,5′,6′-hexahydrospiro[indole-3,4′-thiopyran]-5-yl}carbonyl)amino]benzoic acid], the IC50 stood at 54 nM. In the case of `O=C(NCc1ncccc1F)c1ccc2c(c1)C1(CCS(=O)(=O)CC1)C(C1CC1)N2S(=O)(=O)c1ccc(F)cc1` (stereo not shown) [Example 52, 2-cyclopropyl-1-[(4-fluorophenyl)sulfonyl]-N-[(3-fluoropyridin-2-yl)methyl]-1,2,2′,3′,5′,6′-hexahydrospiro[indole-3,4′-thiopyran]-5-carboxamide 1′,1′-dioxide], the IC50 stood at 752 nM. Take `COc1cccc(S(=O)(=O)N2c3ccc(C(=O)NCc4ncccc4F)cc3C3(CCS(=O)(=O)CC3)C2C2CC2)c1` (stereo not shown) [Example 53, 2-cyclopropyl-N-[(3-fluoropyridin-2-yl)methyl]-1-[(3-methoxyphenyl)sulfonyl]-1,2,2′,3′,5′,6′-hexahydrospiro[indole-3,4′-thiopyran]-5-carboxamide 1′,1′-dioxide]: the IC50 worked out at 617 nM. With `C=CCC1N(S(=O)(=O)c2cccc(C(=O)OC)c2)c2ccc(C(=O)NCc3ccccc3Cl)cc2C12CCS(=O)(=O)CC2` (stereo not shown) [Example 54, methyl 3-({5-[N-(2-chlorobenzyl)carbamoyl]-1′,1′-dioxido-2-(prop-2-en-1-yl)-1,2,2′,3′,5′,6′-hexahydrospiro[indole-3,4′-thiopyran]-1-yl}sulfonyl)benzoate], the half-inhibitory concentration (IC50) stood at 91 nM.

Regarding `C=CC1N(S(=O)(=O)c2cccc(C(=O)OC)c2)c2ccc(C(=O)NCc3ccccc3Cl)cc2C12CCS(=O)(=O)CC2` (stereo not shown) [Example 55, methyl 3-({5-[N-(2-chlorobenzyl)carbamoyl]-1′,1′-dioxido-2-vinyl-1,2,2′,3′,5′,6′-hexahydrospiro[indole-3,4′-thiopyran]-1-yl}sulfonyl)benzoate], the IC50 was determined as 622 nM. In the case of `C=CCC1N(S(=O)(=O)c2cccc(C(=O)O)c2)c2ccc(C(=O)NCc3ccccc3Cl)cc2C12CCS(=O)(=O)CC2` (stereo not shown) [Example 56, 3-({5-[(2-chlorobenzyl)carbamoyl]-1′,1′-dioxido-2-(prop-2-en-1-yl)-2′,3′,5′,6′-tetrahydrospiro[indole-3,4′-thiopyran]-1(2H)-yl}sulfonyl)benzoic acid] it was 136 nM. In the case of `C=CCC1N(S(=O)(=O)c2ccc(F)cc2)c2ccc(C(=O)NCc3ncccc3Cl)cc2C12CCS(=O)(=O)CC2` (stereo not shown) [Example 57, N-[(3-chloropyridin-2-yl)methyl]-1-[(4-fluorophenyl)sulfonyl]-2-(prop-2-en-1-yl)-1,2,2′,3′,5′,6′-hexahydrospiro[indole-3,4′-thiopyran]-5-carboxamide 1′,1′-dioxide], the IC50 was 71 nM.

As to `C=CCC1N(S(=O)(=O)c2ccc(F)cc2)c2ccc(C(=O)Nc3cccc(C(=O)OC)c3)cc2C12CCS(=O)(=O)CC2` (stereo not shown) [Example 58, methyl 3-[({1-[(4-fluorophenyl)sulfonyl]-1′,1′-dioxido-2-(prop-2-en-1-yl)-1,2,2′,3′,5′,6′-hexahydrospiro[indole-3,4′-thiopyran]-5-yl}carbonyl)amino]benzoate], the IC50 stood at 41 nM.

In the case of `C=CCC1N(S(=O)(=O)c2ccc(F)cc2)c2ccc(C(=O)Nc3cccc(C(=O)O)c3)cc2C12CCS(=O)(=O)CC2` (stereo not shown) [Example 59, 3-[({1-[(4-fluorophenyl)sulfonyl]-1′,1′-dioxido-2-(prop-2-en-1-yl)-1,2,2′,3′,5′,6′-hexahydrospiro[indole-3,4′-thiopyran]-5-yl}carbonyl)amino]benzoic acid], the half-maximal inhibitory concentration (IC50) stood at 80 nM. Turning to `COC(=O)c1cccc(S(=O)(=O)N2c3ccc(C(=O)NCc4ccccc4Cl)cc3C3(CCS(=O)(=O)CC3)C2C2CC2)c1` (stereo not shown) [Example 60, methyl 3-({5-[(2-chlorobenzyl)carbamoyl]-2-cyclopropyl-1′,1′-dioxido-2′,3′,5′,6′-tetrahydrospiro[indole-3,4′-thiopyran]-1(2H)-yl}sulfonyl)benzoate], the 50% inhibitory concentration (IC50) was 192 nM.

For `COc1cccc(S(=O)(=O)N2c3ccc(C(=O)Nc4cccc(S(=O)(=O)N=C(N(C)C)N(C)C)c4)cc3C3(CCS(=O)(=O)CC3)C2C2CC2)c1` (stereo not shown) [Example 62, N-(3-{[bis(dimethylamino)methylidene]sulfamoyl}phenyl)-2-cyclopropyl-1-[(3-methoxyphenyl)sulfonyl]-1,2,2′,3′,5′,6′-hexahydrospiro[indole-3,4′-thiopyran]-5-carboxamide 1′,1′-dioxide], the IC50 is 9.8 nM.

For the compound `O=C(Nc1ccon1)c1ccc2c(c1)C1(CCS(=O)(=O)CC1)C(C1CC1)N2S(=O)(=O)c1ccc(F)cc1` (stereo not shown) [Example 63, 2-cyclopropyl-1-[(4-fluorophenyl)sulfonyl]-N-(1,2-oxazol-3-yl)-1,2,2′,3′,5′,6′-hexahydrospiro[indole-3,4′-thiopyran]-5-carboxamide 1′,1′-dioxide], the IC50 is 325 nM. With `CN(C)C(=NS(=O)(=O)c1cccc(NC(=O)c2ccc3c(c2)C2(CCS(=O)(=O)CC2)C(C2CC2)N3S(=O)(=O)c2ccc(F)cc2)c1)N(C)C` (stereo not shown) [Example 64, N-(3-{[bis(dimethylamino)methylidene]sulfamoyl}phenyl)-2-cyclopropyl-1-[(4-fluorophenyl)sulfonyl]-1,2,2′,3′,5′,6′-hexahydrospiro[indole-3,4′-thiopyran]-5-carboxamide 1′,1′-dioxide], the IC50 came to 9.3 nM. For the compound `O=C(NCc1ccc(C(F)(F)F)cn1)c1ccc2c(c1)C1(CCS(=O)(=O)CC1)C(C1CC1)N2S(=O)(=O)c1ccc(F)cc1` (stereo not shown) [Example 65, 2-cyclopropyl-1-[(4-fluorophenyl)sulfonyl]-N-{[5-(trifluoromethyl)pyridin-2-yl]methyl}-1,2,2′,3′,5′,6′-hexahydrospiro[indole-3,4′-thiopyran]-5-carboxamide 1′,1′-dioxide], the IC50 worked out at 479 nM. With `Cc1cc(NS(=O)(=O)c2cccc(NC(=O)c3ccc4c(c3)C3(CCS(=O)(=O)CC3)C(C3CC3)N4S(=O)(=O)c3ccc(F)cc3)c2)no1` (stereo not shown) [Example 66, 2-cyclopropyl-1-[(4-fluorophenyl)sulfonyl]-N-{3-[(5-methyl-1,2-oxazol-3-yl)sulfamoyl]phenyl}-1,2,2′,3′,5′,6′-hexahydrospiro[indole-3,4′-thiopyran]-5-carboxamide 1′,1′-dioxide], the IC50 was 177 nM.

Regarding `O=C(NCc1ccccc1C(F)F)c1ccc2c(c1)C1(CCS(=O)(=O)CC1)C(C1CC1)N2S(=O)(=O)c1ccc(F)cc1` (stereo not shown) [Example 68, 2-cyclopropyl-N-[2-(difluoromethyl)benzyl]-1-[(4-fluorophenyl)sulfonyl]-1,2,2′,3′,5′,6′-hexahydrospiro[indole-3,4′-thiopyran]-5-carboxamide 1′,1′-dioxide], the IC50 was 4.5 nM. As for `O=C(NCc1ccccc1O)c1ccc2c(c1)C1(CCS(=O)(=O)CC1)C(C1CC1)N2S(=O)(=O)c1ccc(F)cc1` (stereo not shown) [Example 69, 2-cyclopropyl-1-[(4-fluorophenyl)sulfonyl]-N-(2-hydroxybenzyl)-1,2,2′,3′,5′,6′-hexahydrospiro[indole-3,4′-thiopyran]-5-carboxamide 1′,1′-dioxide], the IC50 was 320 nM.

These data come from US20140357655A1, “SPIROINDOLINE DERIVATIVES AS GONADOTROPIN- RELEASING HORMONE RECEPTOR ANTAGONISTS” (Bayer Intellectual Property GmbH, priority 2012, published 2014).
